Where two headings read alike, the source gives them in different places.
Key:
adenosine receptor A1 = target: T1, adenosine receptor A1 (Homo sapiens, UniProt P30542); assay: cAMP experiment on Gi-coupled adenosine receptor A1 (CHO); type: cell-based; details: cAMP accumulation, NECA EC80 + forskolin; read-out: IC50 (nM) CHO cells (ADORA1)
T1 construct: host or cells: CHO
T1 sequence (P30542 1-326): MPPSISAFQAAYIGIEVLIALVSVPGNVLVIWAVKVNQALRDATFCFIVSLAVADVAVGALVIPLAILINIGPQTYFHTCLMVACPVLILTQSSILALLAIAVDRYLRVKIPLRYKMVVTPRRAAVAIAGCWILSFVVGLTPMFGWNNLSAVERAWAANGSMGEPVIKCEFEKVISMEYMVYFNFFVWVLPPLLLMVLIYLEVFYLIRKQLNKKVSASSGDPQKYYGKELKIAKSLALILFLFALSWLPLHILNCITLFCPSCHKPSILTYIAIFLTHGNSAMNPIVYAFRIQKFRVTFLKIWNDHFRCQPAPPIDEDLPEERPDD
Experimental: In this experiment, a CHO cell strain stably expressing the adenosine receptor Al was taken as a study object (PerkinElmer, ES-010-C) for the experiment. […] A solution system for cell inoculation was 10 μL of cAMP experimental buffer. […] Likewise, 10 mM test compound was also subjected to 3-fold gradient dilution in 100% DMSO. 1 mM forskolin (Sigma, F3917) was prepared with 100% DMSO. The gradient-diluted reference compound and test compound and the 1 mM forskolin were added to a 384-well compound plate (Labcyte, PP-0200). 10 nL of the 1 mM forskolin per well and 10 nL of the gradient-diluted reference agonist NECA per well were transferred to a test plate containing cells by using Echo (Labcyte, 550), and the test plate was incubated for 30 minutes at 37° C. 5 μL of Eu-cAMP tracer working solution and 5 μL of ULight-anti-cAMP working solution (PerkinElmer, TRF0263) were added to the test plate per well, and the test plate was incubated for 30 minutes at 25° C. […] 1000×EC80 NECA was prepared with 100% DMSO. 10 nL of the reference inhibitor DPCPX gradient-diluted per well and 10 nL of the test compound gradient-diluted per well per well were transferred to a test plate containing the cells, and the test plate was incubated for 20 minutes at 25° C. 10 nL of 1000×EC80 NECA per well and 10 nL of 1 mM forskolin per well were transferred to the test plate The test plate was incubated for 30 minutes at 37° C. 5 μL of Eu-cAMP tracer working solution and 5 μL of ULight-anti-cAMP working solution were added to the test plate per well, and the test plate was incubated for 30 minutes at 25° C. The fluorescence signal ratio of each well in the test plate was read, and the IC50 value of the compound was calculated by using the output data of the reference inhibitor and test compound and the concentration of the compound.

[1] = Pharmacokinetics of Compounds 22, 27 and 40 in SD rats after oral administration for 7 consecutive days; type: in vivo; details: for Accumulation after consecutive administration: SD rats; for AUC / AUC(0-t) / Cmax / Tmax: rat, plasma; for AUC / Cavg / Cmin / AUC(0-t) / Cmax / Tmax: male SD rats; for AUC(0-t) / Cmax / Tmax: male, po, 30 mg/kg; for Tmax: median
Experimental: 12 male SD rats (about 7-9 weeks old on the day of administration, 283.0-298.1 g) were purchased from SPF (Beijing) Biotechnology Co., Ltd. They were randomly divided into 3 groups, with 4 rats in each group, and received orally administration once daily for 7 consecutive days. Compound 27 was administrated to Group 1 at 30 mg/kg, Compound 22 was administrated to Group 2 at 30 mg/kg, and Compound 40 was administrated to Group 3 at 30 mg/kg. All animals had free access to water and diet during dosing.
0.3366 g of Compound 27, 0.3333 g of Compound 22 and 0.3366 g of Compound 40 were weighed out respectively, and dissolved in 44 mL of PEG400 with stirring and ultrasonication; 50 mL of PBS was added to the resulting mixture, stirred and sonicated for complete dissolution; PBS was added to fix the volume to the final volume of 110 mL, thereby obtaining the target formulation solution with the final concentration of 3.0 mg/mL. The prepared formulation solution was divided into 7 portions, each of 15 mL, and stored in a refrigerator at 4° C. Before administration, the formulation was held at room temperature, until its temperature returned to room temperature; the formulation was stirred at room temperature for at least 10 minutes; and the stirring continued during the administration. The entire process for preparing the formulation was operated under yellow light, and during transferring, the prepared formulation was wrapped with tin foil to protect it from light.
The concentrations of Compounds 27, 22 and 40 in the plasma of SD rats were determined by liquid chromatography-mass spectrometry, with […] as the internal standard compound. With the mass spectrometer scanning in the electrospray ion source positive ion mode, the mass-to-charge ratios of parent ions to daughter ions in Compounds 27, 40 and 22 and tolbutamide were 395.2→178.2, 404.2→158.9, 393.4→146.2 and 455.2→165.0, respectively.
The pharmacokinetic parameters of Compounds 27, 40 and 22 were calculated by the software Phoenix™ WinNonlin Version 6.1 using the non-compartmental model. Pharmacokinetic data was calculated using the linear logarithmic trapezoidal method, with a weight of 1/Y*Y. Samples with the sample concentration below the lower limit of quantification were excluded from the calculation of pharmacokinetic parameters. […] The mean time to peak (Tmax) was represented as a median.

[2] = oral 30 mg/kg once a day for 7 consecutive days
[3] = Sprague-Dawley, oral 30 mg/kg once a day for 7 consecutive days, Day 7, mean
[4] = oral 30 mg/kg once a day for 7 consecutive days, Day 7, mean
[5] = Sprague-Dawley (SD), oral 30 mg/kg once a day, Day 1, read-out: drug exposure AUC0-t
[6] = Sprague-Dawley (SD), oral 30 mg/kg once a day, Day 1, read-out: maximum plasma concentration Cmax
[7] = Sprague-Dawley (SD), oral 30 mg/kg once a day, seventh day, read-out: drug exposure AUC0-t
[8] = Sprague-Dawley (SD), oral 30 mg/kg once a day, seventh day, read-out: maximum plasma concentration Cmax
[9] = Sprague-Dawley, oral 30 mg/kg once a day for 7 consecutive days, Day 7, mean, read-out: AUC0-t
[10] = Sprague-Dawley, oral 30 mg/kg once a day for 7 consecutive days, Day 7, mean, read-out: Cmax
[11] = Sprague-Dawley, oral 30 mg/kg once a day for 7 consecutive days, Day 7
[12] = Sprague-Dawley, oral 30 mg/kg once a day, Day 1, mean, read-out: AUC0-t
[13] = Sprague-Dawley, oral 30 mg/kg once a day, Day 1, mean, read-out: Cmax
[14] = Sprague-Dawley, oral 30 mg/kg once a day, Day 1

SMILES: COCCNc1ccc(CCNc2nc(N)n3nc(-c4ccco4)nc3n2)cc1 [Compound 27, 2-(furan-2-yl)-N5-(4-((2-methoxyethyl)amino)phenethyl)-[1,2,4]triazolo[1,5-a][1,3,5]triazine-5,7-diamine]
- IC50 (adenosine receptor A1): 679 nM
- Accumulation after consecutive administration [1, 2]: do not show significant accumulation
- AUC [1, 3]: 22200 ng·h/mL
- Cavg [1, 4]: 925 ng/mL
- Cmin [1, 4]: 9.23 ng/mL
- AUC(0-t) [1, 5]: 29600 ng·h/mL
- Cmax [1, 6]: 7100 ng/mL
- AUC(0-t) [1, 7]: 22200 ng·h/mL
- Cmax [1, 8]: 4620 ng/mL
- AUC(0-t) [1, 9]: 22200 ng·h/mL
- Cmax [1, 10]: 4620 ng/mL
- Tmax [1, 11]: 1.5 h
- AUC(0-t) [1, 12]: 29600 ng·h/mL
- Cmax [1, 13]: 7100 ng/mL
- Tmax [1, 14]: 2 h

SMILES: Nc1nc(NCCc2ccc(NC3COC3)cc2)nc2nc(-c3ccco3)nn12 [Compound 22, 2-(furan-2-yl)-N5-(4-(oxetan-3-ylamino)phenethyl)-[1,2,4]triazolo[1,5-a][1,3,5]triazine-5,7-diamine]
- IC50 (adenosine receptor A1): 928 nM
- Accumulation after consecutive administration [1, 2]: do not show significant accumulation
- AUC [1, 3]: 6950 ng·h/mL
- Cavg [1, 4]: 290 ng/mL
- Cmin [1, 4]: 11.4 ng/mL
- AUC(0-t) [1, 5]: 6630 ng·h/mL
- Cmax [1, 6]: 1020 ng/mL
- AUC(0-t) [1, 7]: 6950 ng·h/mL
- Cmax [1, 8]: 947 ng/mL
- AUC(0-t) [1, 9]: 6950 ng·h/mL
- Cmax [1, 10]: 947 ng/mL
- Tmax [1, 11]: 1.5 h
- AUC(0-t) [1, 12]: 6630 ng·h/mL
- Cmax [1, 13]: 1020 ng/mL
- Tmax [1, 14]: 4 h

SMILES: Cn1nnc(-c2ccc(CCNc3nc(N)n4nc(-c5ccco5)nc4n3)cc2)n1 [Compound 40, N5-(4-(2-methyl-2H-tetrazol-5-yl)phenethyl)-2-(furan-2-yl)-[1,2,4]triazolo[1,5-a][1,3,5]triazine-5,7-diamine]
- IC50 (adenosine receptor A1): 388 nM
- Accumulation after consecutive administration [1, 2]: do not show significant accumulation
- AUC [1, 3]: 6580 ng·h/mL
- Cavg [1, 4]: 274 ng/mL
- Cmin [1, 4]: 52.3 ng/mL
- AUC(0-t) [1, 5]: 5150 ng·h/mL
- Cmax [1, 6]: 503 ng/mL
- AUC(0-t) [1, 7]: 6580 ng·h/mL
- Cmax [1, 8]: 581 ng/mL
- AUC(0-t) [1, 9]: 6580 ng·h/mL
- Cmax [1, 10]: 581 ng/mL
- Tmax [1, 11]: 4 h
- AUC(0-t) [1, 12]: 5150 ng·h/mL
- Cmax [1, 13]: 503 ng/mL
- Tmax [1, 14]: 3 h

SMILES: CCn1c(=O)c2c(nc(/C=C/c3ccc(OC)c(OC)c3)n2C)n(CC)c1=O [Istradefylline, reference compound]
- IC50 (adenosine receptor A1): 1200 nM

Reference: US20230048888A1, “USE OF TRIAZOLOTRIAZINE DERIVATIVE IN TREATMENT OF DISEASES” (ZHEJIANG VIMGREEN PHARMACEUTICALS, LTD., priority 2019, published 2023)
